# According to patent US8071099B2, “Anti-FLT3 antibodies” (ImClone, LLC, priority 2008, dated 2011):
# Experiments:
# Human Leukemia Cells = test: Bone Marrow Engraftment of Human Leukemia Cells; assay type: in vivo, mice; settings: 500 μg/dose, versus control-IgG treated group
# Description: Bone Marrow Engraftment of Human Leukemia Cells: Harvest bone marrow from the femurs of EB10-treated mice (500 μg/dose) and the control-IgG treated group at day 20. Analyze cells for human CD45 by flow cytometry at 6 and 14 weeks post leukemia cell injection for the degree of tumor cell infiltration of bone marrow. Compare the degree of tumor cell infiltration of bone marrow using immunohistochemical staining with a fluorescence-labeled anti-human CD45 antibody.
# [1] = system: FLT3-negative JM1 or BaF3-control cell lines; test: Flow cytometric analysis, FLT3-negative cell lines; assay type: binding
# EOL-1 leukemia cells = test: EOL-1 Xenograft Human AML Leukemia Model; assay type: in vivo, NOD-SCID mice; settings: 10 μg
# BaF3-ITD cells = test: Cell proliferation assay ([3H]-thymidine), FL-independent, BaF3-ITD; assay type: cell-based
# Description: Harvest EOL-1 cells and wash three times using serum-free RPMI 1640 medium. Culture cells in serum-free RPMI 1640 medium for 12 hours. For BaF3-ITD cells, perform the proliferation assay in RPMI 1640 medium supplemented with 10% FCS in the absence of exogenous FL. Reconstitute cells in serum-free AIM-V medium, plate in triplicates in a flat-bottomed 96-well plate (1×104/100 μl/well) and incubate with varying concentrations of antibodies (from 0 to 100 nM) and 30 ng/ml of FL at 37° C. for 68 hours. As a background control, incubate cells with medium alone in the absence of exogenous FL. Pulse cells with 0.25 μCi/well of [^3H]-thymidine for 4 hours. Harvest cells and measure cpm in a PerkinElmer Wallace-1205 Betaplate Liquid Scintillation Counter (Wellesley, Mass.). Calculate the percent inhibition of FL-induced proliferation for EOL-1 cells; deduce the cpm of background proliferation (i.e., cell samples not stimulated with FL) from the cpm of all experimental samples. Calculate percent inhibition using the following formula: [(cpm of untreated sample—cpm of antibody-treated sample)/cpm of untreated sample]×100%.
# SEM-K2 cells = test: Combination therapy with EB10 and MTX in SEM-K2 Leukemia Model; assay type: in vivo, NOD/SCID mice; settings: EB10 10 mg/kg i.p. 2×/week; MTX 100 mg/kg Q7D; combination of both
# Description: One day prior to the start of treatment, i.v. inject 65, 7 weeks old, male NOD/SCID mice with 5×10^5 SEM-K2 cells suspended in PBS in a total volume of 200 μl. Drop from the study mice receiving less than 90% of cells intravenously.
# Prepare MTX (Sigma Chemical, Cat # M9929) in USP Saline at a concentration of 10 mg/ml and dose Q7D for three cycles. […] Dose all mice at 10 ml/kg i.p. In the combination group, dose MTX at least one hour before EB 10 treatment starting on day 1. Record mouse survival daily. Follow the mice for survival, and sacrifice any mouse displaying signs of morbidity/mortality; mark as dead on the day of sacrifice. End the study on day 168 and sacrifice any mice surviving to that point. Compare survival in the treatment groups by Log Rank Test between treatment groups.
Molecule,number of tumor cells in bone marrow (human CD45) (Human Leukemia Cells),binding by flow cytometric analysis ([1]; BaF3-control cell line),binding by flow cytometric analysis ([1]; FLT3-negative JM1 cell line),effect on survival (EOL-1 leukemia cells),% Inhibition of FL-independent proliferation (Mean ± Standard deviation) (BaF3-ITD cells; 6 nM) [%],% Inhibition of FL-independent proliferation (Mean ± Standard deviation) (BaF3-ITD cells; 13 nM) [%],% Inhibition of FL-independent proliferation (Mean ± Standard deviation) (BaF3-ITD cells; 25 nM) [%],% Inhibition of FL-independent proliferation (Mean ± Standard deviation) (BaF3-ITD cells; 50 nM) [%],% Inhibition of FL-independent proliferation (Mean ± Standard deviation) (BaF3-ITD cells; 100 nM) [%],mouse survival (SEM-K2 cells)
"EB10: recombinant human monoclonal antibody, full length IgG1κ targeting human FLT3; heavy chain SEQ ID NO:25, light chain SEQ ID NO:28",decreased significantly,No binding,No binding,No effect,9.6 ± 3.1,13.0 ± 4.0,23.3 ± 0.6,28.6 ± 3.1,29.2 ± 3.0,significantly prolonged mouse survival
"CN(Cc1cnc2nc(N)nc(N)c2n1)c1ccc(C(=O)N[C@@H](CCC(=O)O)C(=O)O)cc1 [MTX, methotrexate, reference compound]",–,–,–,–,–,–,–,–,–,also prolonged survival
